Experimental data: ChEMBL document CHEMBL1629662, “Antimicrobial activity of prulifloxacin tested against a worldwide collection of gastroenteritis-producing pathogens, including those causing traveler's diarrhea” (2009)
Values after ≈ are worked out from the molar mass of the structure shown.

Tests used:
Campylobacter sp. [1] = assay: Antibacterial activity against Campylobacter sp. assessed as growth inhibition at 0.25 ug/ml by broth microdilution method; type: functional
Campylobacter sp. [2] = assay: Antibacterial activity against Campylobacter sp. assessed as growth inhibition at 1 ug/ml by broth microdilution method; type: functional
Campylobacter sp. [3] = assay: Antibacterial activity against Campylobacter sp. assessed as growth inhibition at =>4 ug/ml by broth microdilution method; type: functional
Salmonella enteritidis = assay: Antibacterial activity against Salmonella enterica serovar Enteritidis by broth microdilution method; type: functional, Salmonella enterica subsp. enterica serovar Enteritidis
[4] = Antibacterial activity against Salmonella enterica serovar Choleraesuis by broth microdilution method; type: functional, Salmonella enterica subsp. enterica serovar Choleraesuis
[5] = Antibacterial activity against Salmonella enterica serovar Choleraesuis assessed as percent susceptible isolates by broth microdilution method; type: functional, Salmonella enterica subsp. enterica serovar Choleraesuis
Shigella sonnei = assay: Antibacterial activity against Shigella sonnei by broth microdilution method; type: functional
Shigella boydii = assay: Antibacterial activity against Shigella boydii by broth microdilution method; type: functional
Yersinia enterocolitica = assay: Antibacterial activity against Yersinia enterocolitica by broth microdilution method; type: functional
[6] = system: Yersinia pseudotuberculosis; assay: Antibacterial activity against Yersinia pseudotuberculosis assessed as percent susceptible isolates by broth microdilution method; type: functional
Aeromonas caviae = assay: Antibacterial activity against Aeromonas caviae assessed as percent resistant isolates by broth microdilution method; type: functional
Aeromonas veronii = assay: Antibacterial activity against Aeromonas veronii assessed as percent susceptible isolates by broth microdilution method; type: functional
Plesiomonas shigelloides [7] = assay: Antibacterial activity against Plesiomonas shigelloides assessed as percent susceptible isolates by broth microdilution method; type: functional
Vibrio cholerae = assay: Antibacterial activity against Vibrio cholerae assessed as percent susceptible isolates by broth microdilution method; type: functional
Vibrio parahaemolyticus [8] = assay: Antibacterial activity against Vibrio parahaemolyticus by broth microdilution method; type: functional
Vibrio parahaemolyticus [9] = assay: Antibacterial activity against Vibrio parahaemolyticus assessed as percent resistant isolates by broth microdilution method; type: functional
Vibrio alginolyticus [10] = assay: Antibacterial activity against Vibrio alginolyticus by broth microdilution method; type: functional
Vibrio alginolyticus [11] = assay: Antibacterial activity against Vibrio alginolyticus assessed as percent susceptible isolates by broth microdilution method; type: functional
Vibrio fluvialis = assay: Antibacterial activity against Vibrio fluvialis assessed as percent resistant isolates by broth microdilution method; type: functional
Vibrio vulnificus = assay: Antibacterial activity against Vibrio vulnificus assessed as percent susceptible isolates by broth microdilution method; type: functional
Vibrio sp. [12] = assay: Antibacterial activity against Vibrio sp. assessed as percent resistant isolates by broth microdilution method; type: functional
Campylobacter jejuni = assay: Antibacterial activity against Campylobacter jejuni assessed as percent resistant isolates by broth microdilution method; type: functional; details: pooled result: one value given for 2 cell lines, strains, targets or settings
Escherichia coli [13] = assay: Antibacterial activity against enterotoxigenic Escherichia coli by broth microdilution method; type: functional
Escherichia coli [14] = assay: Antibacterial activity against enteropathogenic Escherichia coli by broth microdilution method; type: functional
Escherichia coli [15] = assay: Antibacterial activity against enteropathogenic Escherichia coli assessed as percent resistant isolates by broth microdilution method; type: functional
Escherichia coli [16] = assay: Antibacterial activity against enteroaggregative Escherichia coli by broth microdilution method; type: functional
Escherichia coli [17] = assay: microbe, parasite or virus in culture; type: functional
Escherichia coli [18] = assay: Antibacterial activity against Escherichia coli by broth microdilution method in presence of sulfamethoxazolee; type: functional
Escherichia coli [19] = assay: Antibacterial activity against blood-borne Escherichia coli assessed as percent resistant isolates by broth microdilution method; type: functional
Escherichia coli [20] = assay: Antibacterial activity against Escherichia coli assessed as growth inhibition at 0.25 ug/ml by broth microdilution method; type: functional
Escherichia coli [21] = assay: Antibacterial activity against Escherichia coli assessed as growth inhibition at 1 ug/ml by broth microdilution method; type: functional
Salmonella sp. = assay: Antibacterial activity against Salmonella sp. assessed as growth inhibition at 0.12 ug/ml by broth microdilution method; type: functional
Shigella sp. = assay: Antibacterial activity against Shigella sp. assessed as growth inhibition at 0.06 ug/ml by broth microdilution method; type: functional
Yersinia sp. = assay: Antibacterial activity against Yersinia sp. assessed as growth inhibition at 0.06 ug/ml by broth microdilution method; type: functional; details: Yersinia sp. (in: enterobacteria)
Aeromonas sp. [22] = assay: Antibacterial activity against Aeromonas sp. assessed as growth inhibition at 0.004 ug/ml by broth microdilution method; type: functional
Aeromonas sp. [23] = assay: Antibacterial activity against Aeromonas sp. assessed as growth inhibition at 0.06 ug/ml by broth microdilution method; type: functional
Aeromonas sp. [24] = assay: Antibacterial activity against Aeromonas sp. assessed as growth inhibition at =>4 ug/ml by broth microdilution method; type: functional
Plesiomonas shigelloides [25] = assay: Antibacterial activity against Plesiomonas shigelloides assessed as growth inhibition at 0.008 ug/ml by broth microdilution method; type: functional
Vibrio sp. [26] = assay: Antibacterial activity against Vibrio sp. assessed as growth inhibition at =<0.002 ug/ml by broth microdilution method; type: functional
Vibrio sp. [27] = assay: Antibacterial activity against Vibrio sp. assessed as growth inhibition at 0.008 ug/ml by broth microdilution method; type: functional
Campylobacter sp. [28] = assay: Antibacterial activity against Campylobacter sp. assessed as growth inhibition at 0.008 ug/ml by broth microdilution method; type: functional
[29] = Escherichia coli, read-out: MIC
[30] = Escherichia coli, read-out: MIC50
[31] = Escherichia coli, read-out: MIC90

CC1Sc2c(C(=O)O)c(=O)c3cc(F)c(N4CCNCC4)cc3n21 (stereo unspecified) [ULIFLOXACIN]
inhibition at 0.25 µg/mL (Campylobacter sp. [1]): 83% | inhibition at 1 µg/mL (Campylobacter sp. [2]): 84% | inhibition (INH) (Campylobacter sp. [3]): 100% | MIC50 (Salmonella enteritidis): 8 ng/mL (≈ 0.0229 µM) | MIC90 (Salmonella enteritidis): 30 ng/mL (≈ 0.0859 µM) | MIC50 [4]: 8 ng/mL (≈ 0.0229 µM) | MIC90 [4]: 30 ng/mL (≈ 0.0859 µM) | Activity [5]: 100% | MIC50 (Shigella sonnei): 4 ng/mL (≈ 0.0114 µM) | MIC90 (Shigella sonnei): 8 ng/mL (≈ 0.0229 µM) | MIC50 (Shigella boydii): 4 ng/mL (≈ 0.0114 µM) | MIC90 (Shigella boydii): 8 ng/mL (≈ 0.0229 µM) | MIC (Yersinia enterocolitica): 8 ng/mL (≈ 0.0229 µM) | MIC50 (Yersinia enterocolitica): 8 ng/mL (≈ 0.0229 µM) | MIC90 (Yersinia enterocolitica): 16 ng/mL (≈ 0.0458 µM) | Activity [6]: 100% | Activity (Aeromonas caviae): 2% | Activity (Aeromonas veronii): 98% | Activity (Plesiomonas shigelloides [7]): 100% | Activity (Vibrio cholerae): 100% | MIC50 (Vibrio parahaemolyticus [8]): 16 ng/mL (≈ 0.0458 µM) | MIC90 (Vibrio parahaemolyticus [8]): 30 ng/mL (≈ 0.0859 µM) | Activity (Vibrio parahaemolyticus [9]): 0% | MIC50 (Vibrio alginolyticus [10]): 16 ng/mL (≈ 0.0458 µM) | MIC90 (Vibrio alginolyticus [10]): 30 ng/mL (≈ 0.0859 µM) | Activity (Vibrio alginolyticus [11]): 100% | Activity (Vibrio fluvialis): 0% | Activity (Vibrio vulnificus): 100% | Activity (Vibrio sp. [12]): 0% | Activity (Campylobacter jejuni): 14.7% | MIC (Escherichia coli [13]): 4 ng/mL (≈ 0.0114 µM) | MIC50 (Escherichia coli [13]): 4 ng/mL (≈ 0.0114 µM) | MIC90 (Escherichia coli [13]): 8 ng/mL (≈ 0.0229 µM) | MIC (Escherichia coli [13]; [29]): 4 ng/mL (≈ 0.0114 µM) | MIC50 (Escherichia coli [13]; [30]): 4 ng/mL (≈ 0.0114 µM) | MIC90 (Escherichia coli [13]; [31]): 8 ng/mL (≈ 0.0229 µM) | MIC (Escherichia coli [14]): 4 ng/mL (≈ 0.0114 µM) | MIC50 (Escherichia coli [14]): 8 ng/mL (≈ 0.0229 µM) | MIC90 (Escherichia coli [14]): 8 ng/mL (≈ 0.0229 µM) | MIC50 (Escherichia coli [14]; [30]): 8 ng/mL (≈ 0.0229 µM) | MIC90 (Escherichia coli [14]; [31]): 8 ng/mL (≈ 0.0229 µM) | Activity (Escherichia coli [15]): 0% | MIC (Escherichia coli [16]): 4 ng/mL (≈ 0.0114 µM) | MIC50 (Escherichia coli [16]): 4 ng/mL (≈ 0.0114 µM) | MIC90 (Escherichia coli [16]): 8 ng/mL (≈ 0.0229 µM) | MIC (Escherichia coli [16]; [29]): 4 ng/mL (≈ 0.0114 µM) | MIC50 (Escherichia coli [16]; [30]): 4 ng/mL (≈ 0.0114 µM) | MIC90 (Escherichia coli [16]; [31]): 8 ng/mL (≈ 0.0229 µM) | MIC50 (Escherichia coli [17]): 8 ng/mL (≈ 0.0229 µM) | MIC90 (Escherichia coli [17]): 8 ng/mL (≈ 0.0229 µM) | MIC50 (Escherichia coli [17]; [30]): 8 ng/mL (≈ 0.0229 µM) | MIC90 (Escherichia coli [17]; [31]): 8 ng/mL (≈ 0.0229 µM) | Activity (Escherichia coli [18]): 4.8% | Activity (Escherichia coli [19]): 10% | inhibition at 0.25 µg/mL (Escherichia coli [20]): 97% | inhibition at 1 µg/mL (Escherichia coli [21]): 97% | inhibition at 0.12 µg/mL (Salmonella sp.): 100% | inhibition at 0.06 µg/mL (Shigella sp.): 99% | inhibition at 0.06 µg/mL (Yersinia sp.): 98% | inhibition at 0.004 µg/mL (Aeromonas sp. [22]): 55% | inhibition at 0.06 µg/mL (Aeromonas sp. [23]): 92% | inhibition (INH) (Aeromonas sp. [24]): 100% | inhibition at 0.008 µg/mL (Plesiomonas shigelloides [25]): 100% | inhibition (INH) (Vibrio sp. [26]): 15% | inhibition at 0.008 µg/mL (Vibrio sp. [27]): 40% | inhibition at 0.008 µg/mL (Campylobacter sp. [28]): 2%
